In article PMC5517562, “Design and discovery of novel monastrol-1,3,5-triazines as potent anti-breast cancer agent via attenuating Epidermal Growth Factor Receptor tyrosine kinase” (Scientific Reports, 2017):

What was measured:
[1] = tested on: WT EGFR; parameters: method as in PMID 22227214; details: cited from earlier work
[2] = tested on: mutant EGFRT790M/L858R; parameters: method as in PMID 22227214; details: cited from earlier work
[3] = tested on: A549; parameters: method as in PMID 22227214; details: read-out: IC50 antiproliferative activity A549; cited from earlier work
[4] = tested on: A431; parameters: method as in PMID 22227214; details: read-out: IC50 antiproliferative activity A431; cited from earlier work
[5] = tested on: NCIH1975; parameters: method as in PMID 22227214; details: read-out: IC50 antiproliferative activity NCIH1975; cited from earlier work
[6] = tested on: HeLa (cervical cancer); assay: MTT in vitro cytotoxicity assay, HeLa; assay type: cell-based, human; details: Homo sapiens
Method: (§1) The synthesized compounds were evaluated for in-vitro cytotoxic activity against various cell lines such as HeLa (cervical cancer), MCF-7 (breast cancer), HL-60 (Human promyelocytic leukemia), HepG2 (Hepatocellular carcinoma) and MCF 12A (normal epithelial cell) by the MTT assay method. […] The relationship between surviving fraction and drug concentration was plotted to obtain the survival curve of all the cancer cell lines HeLa, MCF-7, HL-60 and HepG2. The response parameter calculated was the IC50 values, which responds to the concentration required for 50% inhibition of cell viability. The in-vitro cytotoxic activity of the synthesized compounds is summarized Table 3.
(§2) The target compounds were subjected to in vitro cytotoxicity bioassay. In vitro cytotoxicity was determined using a standard MTT assay with protocol appropriate for the individual test system[29]–[31]. The four human cancer cell lines HeLa, MCF-7, HL-60, HepG2 and MCF-12A were cultured in the MEM medium supplemented with 10% FBS, 1% glutamine and […] gentamicin sulfate in a CO2 incubator in a humidified atmosphere of 5% CO2 and 95% air. The test compounds were prepared prior to the experiment by dissolving in 0.1% DMSO and diluted with medium. The cells were then exposed to different concentrations of drugs ([…]) in the volume of […]. Cells in the control wells received the same volume of medium containing 0.1% DMSO. After 24 h, the medium was removed and cell cultures were incubated with […] MTT reagent (1 mg/ml) for 5 h at 37 °C. The known number of cells ([…]) was incubated in a 5% CO2 incubator at 37 °C in the presence of different concentrations of test compounds. After 48 h of drug incubation, the MTT solution was added in each well and absorbance was recorded at 540 nm by an ELISA reader. The experiment was performed in triplicate. Cell survival was calculated as the percentage of MTT inhibition as % growth inhibition = 100 − (mean OD of individual test Group/Mean OD of each Control Group) × 100.

[7] = tested on: MCF-7 (breast cancer); assay: MTT in vitro cytotoxicity assay, MCF-7; assay type: cell-based, human; details: Homo sapiens, MCF7
Method: as §1, §2

[8] = tested on: HL-60 (Human promyelocytic leukemia); assay: MTT in vitro cytotoxicity assay, HL-60; assay type: cell-based; details: Homo sapiens
Method: as §1, §2

[9] = tested on: HepG2 (Hepatocellular carcinoma); assay: MTT in vitro cytotoxicity assay, HepG2; assay type: cell-based, human; details: Homo sapiens, NA: Not active
Method: as §1, §2

[10] = tested on: MCF 12A (normal epithelial breast cell line); assay: MTT assay on normal cells, MCF 12A; assay type: cell-based, human; details: Homo sapiens, normal epithelial breast cell MCF 12A
Method: as §1
The presence of non-halogen substituent along with electron donating substituent seriously jeopardise the anticancer potential. […] To determine the selectivity of these molecules between normal and cancerous cells, the designed compounds were also tested against MCF 12A, a normal epithelial breast cell.
as §2

[11] = molecular target: T1, EGFR-TK (Homo sapiens, UniProt P00533); assay: EGFR tyrosine kinase inhibitory activity (Kinase-Glo Plus luminescence); assay type: biochemical; details: at 10 µM; read-out: Percent of Inhibition, EGFR tyrosine kinase
T1 construct: 0.2 mg/mL Poly (Glu, Tyr) substrate, 10 mM ATP and EGFR
T1 sequence (P00533 25-1210): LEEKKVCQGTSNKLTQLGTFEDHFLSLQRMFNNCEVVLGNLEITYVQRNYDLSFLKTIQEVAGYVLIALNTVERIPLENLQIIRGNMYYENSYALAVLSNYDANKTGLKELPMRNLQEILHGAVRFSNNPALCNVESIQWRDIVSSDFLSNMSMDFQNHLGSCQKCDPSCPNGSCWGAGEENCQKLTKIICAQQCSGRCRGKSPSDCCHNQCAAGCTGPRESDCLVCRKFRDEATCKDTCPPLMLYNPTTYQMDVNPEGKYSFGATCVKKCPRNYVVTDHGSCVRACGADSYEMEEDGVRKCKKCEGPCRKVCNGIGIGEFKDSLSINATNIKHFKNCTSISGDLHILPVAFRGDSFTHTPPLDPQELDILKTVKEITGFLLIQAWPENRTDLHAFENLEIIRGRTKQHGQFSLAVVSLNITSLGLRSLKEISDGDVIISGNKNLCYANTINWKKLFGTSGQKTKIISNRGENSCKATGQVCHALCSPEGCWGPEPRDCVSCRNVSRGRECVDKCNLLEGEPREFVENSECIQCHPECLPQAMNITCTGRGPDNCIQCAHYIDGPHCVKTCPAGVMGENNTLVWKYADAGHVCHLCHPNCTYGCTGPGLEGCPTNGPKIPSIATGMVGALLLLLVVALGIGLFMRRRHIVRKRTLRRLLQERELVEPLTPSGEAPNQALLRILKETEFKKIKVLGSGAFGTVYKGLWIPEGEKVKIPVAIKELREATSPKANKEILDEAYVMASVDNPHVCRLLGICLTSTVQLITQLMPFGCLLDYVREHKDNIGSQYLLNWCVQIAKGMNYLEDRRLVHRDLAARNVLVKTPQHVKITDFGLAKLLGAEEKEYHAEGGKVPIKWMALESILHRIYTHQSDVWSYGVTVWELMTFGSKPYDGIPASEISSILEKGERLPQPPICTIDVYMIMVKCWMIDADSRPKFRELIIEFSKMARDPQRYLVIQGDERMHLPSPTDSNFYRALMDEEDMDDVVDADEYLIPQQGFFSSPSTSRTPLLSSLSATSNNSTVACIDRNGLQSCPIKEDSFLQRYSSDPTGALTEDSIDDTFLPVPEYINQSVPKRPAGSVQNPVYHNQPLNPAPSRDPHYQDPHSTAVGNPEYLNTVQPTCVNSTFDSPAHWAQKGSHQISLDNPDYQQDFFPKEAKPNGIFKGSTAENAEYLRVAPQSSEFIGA
Method: Kinase activity was determined using Kinase-Glo Plus luminescence kinase assay kit, by quantitating the amount of ATP remaining in the solution of kinase reaction. The luminescent signal is correlated with the residual amount present and it was inversely related with kinase activity. The tested compounds were diluted to 100 mM in 10% DMSO, then […] of the dilution was added to a 50 mL reaction. All of the enzymatic reactions were performed at 30 °C for 40 min, 50 mL of reaction mixture contains 10 mM MgCl2, 40 mM Tris, pH 7.4, 0.1 mg/mL BSA, 0.2 mg/mL Poly (Glu, Tyr) substrate, 10 mM ATP and EGFR. Incubate the plate for 5 min at r.t. then add 50 mL of Kinase-GloPlus Luminescence kinase assay to each reaction. ADP-Glo assay kit is the protein kinase assays used to determine IC50 values in which ADP generation was measured as it leads to an increase in luminescence signal. The reaction mixture was incubated in a 96-well plate at 30 °C for 30 min, after the incubation period add 25 mL of ADP-Glo reagent to terminate the assay. Shake the 96-well plate for 30 min at ambient temperature then incubate it, then add 50 mL of kinase detection reagent. Read the 96-well plate using the ADP-Glo Luminescence reader. All the assay components were added to the blank control except the substrate. By removing the blank control value you can obtain the corrected activity for each protein kinase target.

| SMILES | IC50 [1] [µM] | IC50 [2] [µM] | IC50 [3] [µM] | IC50 [4] [µM] | IC50 [5] [µM] | IC50 [6] [µM] | IC50 [7] [µM] | IC50 [8] [µM] | IC50 [9] [µM] | IC50 [10] [µM] | inhibition at 10 µM [11] [%] | melting point [°C] |
| --- | --- | --- | --- | --- | --- | --- | --- | --- | --- | --- | --- | --- |
| CC(C)Nc1nc(N/N=C/c2cc(Br)c(O)c(Br)c2O)nc(Nc2ccc(F)cc2)n1 [1a] | 25.9 | 6.5 | 7.7 ± 1.3 | 8 ± 1.6 | 10.5 ± 0.9 | – | – | – | – | – | – | – |
| CNc1nc(N/N=C/c2ccc(O)cc2)nc(Nc2ccccc2)n1 [1f] | > 100 | 30.7 | – | – | – | – | – | – | – | – | – | – |
| CCOC(=O)C1=C(C)N(c2nc(Nc3ccc(Cl)cc3)nc(Nc3ccc(Cl)cc3)n2)C(=S)NC1c1ccccc1Cl (stereo not drawn) [7j, Ethyl 1-(4,6-bis((4-chlorophenyl)amino)-1,3,5-triazin-2-yl)-4-(2-chlorophenyl)-6-methyl-2-thioxo-1,2,3,4-tetrahydropyrimidine-5-carboxylate] | – | – | – | – | – | 46.2 ± 0.56 | 57 ± 0.47 | 39.6 ± 0.78 | 38.7 ± 0.32 | 69.13 ± 0.62 | 82.4 | 112 to 114 |
| CCOC(=O)C1=C(C)N(c2nc(Nc3cccc(Cl)c3)nc(Nc3cccc(Cl)c3)n2)C(=S)NC1c1ccc(F)cc1 (stereo not drawn) [7m, Ethyl 1-(4,6-bis((3-chlorophenyl)amino)-1,3,5-triazin-2-yl)-4-(4-fluorophenyl)-6-methyl-2-thioxo-1,2,3,4-tetrahydropyrimidine-5-carboxylate] | – | – | – | – | – | 42.1 ± 0.34 | 53.8 ± 0.28 | 36.5 ± 0.48 | 39.3 ± 0.12 | 73.56 ± 0.4 | 88.5 | 153 to 155 |
